Source: patent US8211631B2, “In vitro model of spinal muscular atrophy” (Wisconsin Alumni Research Foundation, priority 2008, dated 2012)
“Also recorded” adds a separate entry of the source.

Tests used:
Format in all cases: cell-based, human
iPS-WT cells = experiment: Nuclear gem localization (SMN immunostaining) in iPS-WT-derived neurons and astrocytes after drug treatment; conditions: 1 mM valproic acid or tobramycin; 2 days of drug treatment
Description: (§1) Immunocytochemistry. Cells were fixed in 4% paraformaldehyde or 1:1 acetone/methanol for 20 min at room temperature and rinsed with PBS. Nonspecific labeling was blocked and the cells were permeabilized with 5% normal goat serum and/or 5% normal donkey serum containing 0.2% Triton X-100 in PBS for 30 min at room temperature. Cells were rinsed with PBS and then incubated with primary antibodies for 1 h at room temperature or overnight at 4° C. Cells were then labeled with the appropriate fluorescently tagged secondary antibodies. Hoechst nuclear dye was used to label nuclei. Gems were counted in 100 nuclei, and positively stained neurons were counted and measured on five areas on each of three coverslips using Metamorph software. All data were analyzed using Prizm statistical software.
(§2) Finally, we assessed whether SMN-inducing compounds could increase SMN levels in the iPS-SMA cellular context because this would be an important proof-of-principle for the further development of drug screens. […] We are at present assessing gem formation in differentiating motor neurons and have shown that they can indeed be detected (FIG. 14A, B).

[1] = test system: SMN protein in iPS-SMA cells; experiment: Western blot analysis of SMN protein in drug-treated iPS-SMA cells; conditions: corrected to beta-actin, two days after drug treatment, 1 mM valproic acid or tobramycin, n=3
Description: Protein isolation and western blot analysis. Cells were isolated, suspended in 1% Triton X-100 lysis buffer supplemented with 1% protease inhibitor cocktail (Sigma), triturated and centrifuged at 16,060 g for 10 min at 4° C. Ten to twenty micrograms of protein was separated on 12% SDS-polyacrylamide gel, transferred to a nitrocellulose membrane and probed with a primary antibody against SMN (mouse monoclonal), followed by a horseradish-peroxidase-conjugated secondary antibody (Promega), and then visualized using ECL chemiluminescence (Amersham). As a control, the membrane was stripped and re-probed for beta-actin. For semiquantitative analysis, SMN signal intensity was analyzed and corrected with respect to beta-actin.
as §2, with “screens. SMN protein is found in both the cytoplasm and nuclear aggregate structures called gems, and the number of gems present is inversely correlated to disease severity (Coovert, D. D. et al. The survival motor neuron protein in spinal muscular atrophy, Hum. Mol. Genet. 6, 1205-1214, 1997).” for “screens.”

iPS-SMA cells = experiment: Nuclear gem localization (SMN immunostaining) in iPS-SMA-derived neurons and astrocytes after drug treatment; conditions: 1 mM valproic acid or tobramycin; 2 days of drug treatment; gems counted in 100 nuclei; P<0.05, ANOVA
Description: as §1, §2

| SMILES | gem localization in treated compared to untreated iPS-WT cells (iPS-WT cells) | increase in SMN protein levels compared to untreated iPS-SMA cells [1] [fold] | number of gems in treated compared to untreated iPS-SMA cells (iPS-SMA cells) |
| --- | --- | --- | --- |
| CCCC(CCC)C(=O)O [valproic acid] | no significant increase in gem localization | 2 | significant increase in the number of gems; also recorded: significantly increased the number of gems |
| NC[C@H]1O[C@H](O[C@H]2[C@H](O)[C@@H](O[C@H]3O[C@H](CO)[C@@H](O)[C@H](N)[C@H]3O)[C@H](N)C[C@@H]2N)[C@H](N)C[C@@H]1O [tobramycin] | no significant increase in gem localization | 3 | significant increase in the number of gems; also recorded: significantly increased the number of gems |
